The values below come from patent publication US12295992B2, “Use of ALDH1A and agonist, catalyst and inhibitor thereof” (SHANGHAI INSTITUTES FOR BIOLOGICAL SCIENCES, CHINESE …, priority 2017, dated 2025).

SMILES strings stand for the structures.

The test system of series [1] is wild-type C57BL/6 mice. Put plainly: Three-chamber social experiment in wild-type mice. The series is classed as in vivo. Particulars: DSF 0.3 mg/g. Here is the method:
Four-week-aged mice were given a low dose (0.1 mg/g) or a high dose (0.3 mg/g) of DSF (Sigma, dissolved in olive oil) every two days for 6 weeks. The control group was only given the solvent olive oil (Aladdin). The body weight of the mice was weighed weekly. After 6 weeks of gastric administration, the test of mouse behavior was started. The brains of the control and DSF mice were dissected and taken. After freezing with liquid nitrogen, the brain tissue was homogenized, and ATRA was quantified by the HPLC-MS/MS method as described hereinafter. A three-chamber social experiment was performed according to previously reported procedures (Sztainberg et al., 2015). Briefly, a transparent acrylic box for social experiment was divided into three chambers of uniform size with removable gates mounted on the partition board. An inverted iron mesh cup was placed in each of the left and right chambers. Two days before the experiment, C57BL/6 mice, which were from different family and whose age was matched with the test mice, were placed in two cups as strange mice for 1 hour each day for accommodation. Test mice were randomized into groups and accommodated to the test chamber for 1 hour before the test started. Each test mouse was placed in the center chamber for 10 minutes for self-exploration, and the chamber door was closed. In the first stage, a strange mouse was randomly placed in the left or right cup (avoiding positional bias), and the inanimate article was placed in the cup on the other side. […] In the second stage, the test mice were kept in the chamber of the strange mouse for 5 minutes, and then another strange mouse was placed in the cup in which the article was previously placed.

The test system of series [2] is wild-type C57BL/6 mice. The series is described as follows: Self-grooming experiment in wild-type mice. The series is classed as in vivo. Particulars: six weeks, within 10 minutes. The method, then: Four-week-aged mice were given a low dose (0.1 mg/g) or a high dose (0.3 mg/g) of DSF (Sigma, dissolved in olive oil) every two days for 6 weeks. The control group was only given the solvent olive oil (Aladdin). The body weight of the mice was weighed weekly. After 6 weeks of gastric administration, the test of mouse behavior was started. The brains of the control and DSF mice were dissected and taken. After freezing with liquid nitrogen, the brain tissue was homogenized, and ATRA was quantified by the HPLC-MS/MS method as described hereinafter. The mice used in the self-grooming experiment were placed in a cage box filled with a filler having a thickness of about 0.5-1 cm for 10 minutes in advance for accommodation. Then, within 10 minutes, the time of self-grooming in mice was recorded by a double-blind experimenter through a stopwatch.

The test system of series [3] is wild-type C57BL/6 mice. Put plainly: Rotating rod experiment in wild-type mice. Particulars: DSF 0.1 or 0.3 mg/g. The series is classed as in vivo. The method, then: (§1) Four-week-aged mice were given a low dose (0.1 mg/g) or a high dose (0.3 mg/g) of DSF (Sigma, dissolved in olive oil) every two days for 6 weeks. The control group was only given the solvent olive oil (Aladdin). The body weight of the mice was weighed weekly. After 6 weeks of gastric administration, the test of mouse behavior was started. The brains of the control and DSF mice were dissected and taken. After freezing with liquid nitrogen, the brain tissue was homogenized, and ATRA was quantified by the HPLC-MS/MS method as described hereinafter.
After mice were randomized into groups, the motor coordination ability of the mice was recorded using a Rotamex rotarod instrument (Columnbus Instruments). On the same day, the test mice were tested 3 times, each experiment was lasted 5 minutes, and the rotating rod was accelerated from 4 revolutions […]. There were at least 30 minutes between two experiments. The time before the test mice dropped off the rod was automatically recorded by an infrared detection system, and the results of the last test were finally compared.

Series [4] is described as follows: Body weight of mice during DSF administration. The series is classed as in vivo. Particulars: DSF 0.1 or 0.3 mg/g, weighed weekly, six weeks. The method, then:
as §1

The subject of series [5] is wild-type C57BL/6 mice. Put plainly: Open field experiment in wild-type mice. The series is classed as in vivo. Particulars: DSF 0.1 or 0.3 mg/g vs solvent. Here is the method: as §1
Mice were randomized into groups and placed in an open field instrument (Med Associates) for 30 minutes. The Ethovision automatic recording software (Noldus) was used to record the time spent by the mouse in the central region (⅓ to ⅔ of length on each side of the region) and to calculate the ratio of the distance walked in the central region to the total distance.

Series [6] deals with ATRA synthesis in the mouse brain. The series is described as follows: HPLC-MS/MS quantification of ATRA in mouse brain tissue. Particulars: six weeks. The series is classed as in vivo, mice. Here is the method: Four-week-aged mice were given a low dose (0.1 mg/g) or a high dose (0.3 mg/g) of DSF (Sigma, dissolved in olive oil) every two days for 6 weeks. The control group was only given the solvent olive oil (Aladdin). The body weight of the mice was weighed weekly. After 6 weeks of gastric administration, the test of mouse behavior was started. The brains of the control and DSF mice were dissected and taken. After freezing with liquid nitrogen, the brain tissue was homogenized, and ATRA was quantified by the HPLC-MS/MS method as described hereinafter. Sample preparation, retinoid extraction and subsequent HPLC-MS/MS analysis were performed according to the previously reported procedures (Kane et al., 2010). The frozen brains of mice were homogenized on ice with 2 mL of 0.9% saline under red light condition. 13-cis-retinoic acid-d5 (20 ng/mL, TRC) was added into the tissue homogenate as an internal reference. […] The samples were analyzed by HPLC on a 2.1×100 mm Supelcosil ABZ+PLUS column (3 urn, Sigma) column. […] The instrumentation was an AB Sciex 4000 QTRAP LC-MS/MS system, and the ATRA component was quantified in the APCI cation mode, and the ATRA content in each sample was corrected using a standard ATRA curve.

For series [7], the system named is wild-type C57BL/6 mice. Put plainly: Elevated cross maze experiment in wild-type mice. The series is classed as in vivo. Particulars: DSF 0.1 or 0.3 mg/g vs solvent. Here is the method:
as §1
Mice were placed in a closed arm of an elevated cross maze (Med Associates) and recording was started for 5 minutes. Image recording was performed using a camera hanged in the air, and the number of times that the mouse entered into the open arm and the closed arm within 5 minutes was recorded and analyzed using ANY-maze software (Stoelting).

Take `CCN(CC)C(=S)SSC(=S)N(CC)CC` [DSF, disulfiram]: in the series with wild-type C57BL/6 mice [1], the “increase of time spent in the chamber of familiar social mouse vs solvent group” value is reported as 50% and the “reduction of time staying in the chamber of strange social mouse vs solvent group” value is 30%. This molecule gave a time of self-grooming in the series with wild-type C57BL/6 mice [2] (DSF 0.1 mg/g) of 30 s. The molecule also gave a time of self-grooming with wild-type C57BL/6 mice [2] (DSF 0.3 mg/g) of 42 s. The “sport ability (rotating rod)” value with wild-type C57BL/6 mice [3] was “did not affect the sport ability”. Besides, in series [4], the “body weight between the groups” value is “no significant difference”. In the series with wild-type C57BL/6 mice [5], the “distance of the movement in the open field” value was “no difference” and the “time staying in the middle area of the open field” value is listed as “no difference”. Moreover, the “decrease of ATRA level in brain tissue vs solvent group” value in series [6] (DSF 0.1 mg/g oral every other day) is 30%. In addition, in series [6] (DSF 0.3 mg/g oral every other day), the “decrease of ATRA level in brain tissue vs solvent group” value was 60%. In the series on wild-type C57BL/6 mice [7], the “number of times entering the open arm as a percentage of all arm entry” value is listed as “no significant difference”.
